System: isolated rat bladder strips
Assay: Inhibition of contractions of isolated rat bladder strips (KCl-enhanced contractile activity)
Conditions: 0.5 h; isolated Sprague-Dawley rat bladder strips, 15 mM KCl added, 30 min challenge per concentration; read-out: IC50 (concentration required to elicit 50% inhibition of pre-drug contractile activity)
Method: The compounds of the examples were tested to determine their ability to inhibit contractions of isolated rat bladder strips. See Foster, C. D. et al. Br. J. Pharmacol. 97:281-291, 1989; and Fujii, K. et al. Br. J. Pharmacol. 99:779-785, 1990. Malmgren, A. et al. J. Urol. 143:828-834, 1990, each of which are incorporated herein by reference in its entirety.
Male Sprague-Dawley rats (150-200 g) were obtained from ACE animal suppliers. Animals were allowed free access to food and water.
Animals were euthanized by CO2 asphyxiation followed by a bilateral thoracotomy. The bladder was removed into warm (37 deg. C.) physiological salt solution (PSS) of the following composition (mM): NaCl, 118.4; KCl, 4.7; CaCl2, 2.5; MgSO4.7H2O, 1.2; NaHCO3, 24.9; KH2PO4, 1.2; glucose, 11.1; EDTA, 0.023; gassed with 95% O2/5% CO2; pH 7.4. The bladder was opened and then cut into strips 1-2 mm in width and 7-10 mm in length. The strips were subsequently suspended in a 10 ml tissue bath under an initial resting tension of 1.5 g. The strips were held in place by two surgical clips one of which was attached to a fixed hook while the other was attached to an isometric force transducer. […] The carbachol was then washed out and the tissue allowed to relax to its resting level of activity. Following a further thirty minute period of recovery an additional 15 mM KCl was introduced into the tissue bath. This increase in KCl concentration results in a large increase in the amplitude of spontaneous contractions (and initiation of contractions in previously quiescent strips) superimposed upon a small increase in basal tone. Following stabilization of this enhanced level of contractile activity, incremental increases in the concentration of test compound or vehicle were introduced into the tissue bath. Contractile activity was measured for each compound or vehicle concentration during the last minute of a thirty minute challenge.
Isometric force developed by the bladder strips was measured using a force transducer and recorded on a polygraph. Contractile activity was assessed by measuring either the average amplitude of the contractions (baseline to peak force) occurring during a one min period or, preferably, by integrating the contractile activity with respect to time (one minute measuring period).
The percentage inhibition of contractile activity evoked by each concentration of a given test compounds was used to generate a concentration-response curve. The concentration of test compound required to elicit 50% inhibition of pre-drug contractile activity (IC50 concentration) was calculated from this concentration-response curve. The maximum percentage inhibition of contractile activity evoked by a test compound was also recorded for concentrations of test compound <- or 30 uM.

| IC50 [nM] | SMILES |
| --- | --- |
| 650 to 700 | CC(=O)Nc1cc2c3c(c1)c1c(n3CC2)CCCCC1 [Example 11, N-4,5,8,9,10,11-hexahydro-7H-cyclohepta[b]pyrrolo[3,2,1-hi]indol-2-ylacetamide] |
| 700 to 1000 | CCCCC(=O)Nc1cc2c3c(c1)c1c(n3CC2)CCCCC1 [Example 12, N-4,5,8,9,10,11-hexahydro-7H-cyclohepta[b]pyrrolo[3,2,1-hi]indol-2-ylpentanamide] |
| 500 to 600 | O=C(Cc1ccccc1)Nc1cc2c3c(c1)c1c(n3CC2)CCCCC1 [Example 13, N-4,5,8,9,10,11-hexahydro-7H-cyclohepta[b]pyrrolo[3,2,1-hi]indol-2-yl-2-phenylacetamide] |
| 800 to 1000 | CC(C)CC(=O)Nc1cc2c3c(c1)c1c(n3CC2)CCCCC1 [Example 14, N-4,5,8,9,10,11-hexahydro-7H-cyclohepta[b]pyrrolo[3,2,1-hi]indol-2-yl-3-methylbutanamide] |
| 300 to 1200 | O=C(CCC1CCCC1)Nc1cc2c3c(c1)c1c(n3CC2)CCCCC1 [Example 15, 3-cyclopentyl-N-4,5,8,9,10,11-hexahydro-7H-cyclohepta[b]pyrrolo[3,2,1-hi]indol-2-ylpropanamide] |
| 400 to 800 | CCCCCC(=O)Nc1cc2c3c(c1)c1c(n3CCC2)CCCC1 [Example 17, N-5,6,8,9,10,11-hexahydro-4H-pyrido[3,2,1-jk]carbazol-2-ylhexanamide] |
| 500 to 550 | CC(C)CC(=O)Nc1cc2c3c(c1)c1c(n3CCC2)CCCC1 [Example 18, N-5,6,8,9,10,11-hexahydro-4H-pyrido[3,2,1-jk]carbazol-2-yl-3-methylbutanamide] |
| 2000 to 3000 | CC(=O)Nc1cc2c3c(c1)c1c(n3CCC2)CCCC1 [Example 19, N-5,6,8,9,10,11-hexahydro-4H-pyrido[3,2,1-jk]carbazol-2-ylacetamide] |
| 80 to 550 | CCCCCC(=O)Nc1cc2c3c(c1)c1c(n3CC2)CCCCCC1 [Example 20, N-4,5,7,8,9,10,11,12-octahydrocycloocta[b]pyrrolo[3,2,1-hi]indol-2-ylhexanamide] |
| 160 to 700 | CC(C)(C)CC(=O)Nc1cc2c3c(c1)c1c(n3CC2)CCCCCC1 [Example 21, 3,3-dimethyl-N-4,5,7,8,9,10,11,12-octahydrocycloocta[b]pyrrolo[3,2,1-hi]indol-2-ylbutanamide] |
| 800 to 1000 | CCCCCCC(=O)Nc1cc2c3c(c1)c1c(n3CC2)CCCCCC1 [Example 22, N-4,5,7,8,9,10,11,12-octahydrocycloocta[b]pyrrolo[3,2,1-hi]indol-2-ylheptanamide] |

More lines, now with the values behind:

| SMILES | IC50 [nM] |
| --- | --- |
| CC(C)(C)CC(=O)Nc1cc2c3c(c1)c1c(n3CCC2)CCCCC1 [Example 1, N-5,6,9,10,11,12-hexahydro-4H,8H-cyclohepta[4,5]pyrrolo[3,2,1-ij]quinolin-2-yl-3,3-dimethylbutanamide] | 30 to 70 |
| CCCCCC(=O)Nc1cc2c3c(c1)c1c(n3CCC2)CCCCC1 [Example 3, N-5,6,9,10,11,12-hexahydro-4H,8H-cyclohepta[4,5]pyrrolo[3,2,1-ij]quinolin-2-ylhexanamide] | 400 to 2600 |
| CC(C)CC(=O)Nc1cc2c3c(c1)c1c(n3CCC2)CCCCC1 [Example 6, N-5,6,9,10,11,12-hexahydro-4H,8H-cyclohepta[4,5]pyrrolo[3,2,1-ij]quinolin-2-yl-3-methylbutanamide] | 80 to 350 |
| CCC(=O)Nc1cc2c3c(c1)c1c(n3CCC2)CCCCC1 [Example 7, N-5,6,9,10,11,12-hexahydro-4H,8H-cyclohepta[4,5]pyrrolo[3,2,1-ij]quinolin-2-ylpropanamide] | 400 to 550 |
| CCCCC(=O)Nc1cc2c3c(c1)c1c(n3CCC2)CCCCC1 [Example 9, N-5,6,9,10,11,12-hexahydro-4H,8H-cyclohepta[4,5]pyrrolo[3,2,1-ij]quinolin-2-ylpentanamide] | 50 to 1000 |
| CC(C)(C)CC(=O)Nc1cc2c3c(c1)c1c(n3CC2)CCCCC1 [Example 10, N-4,5,8,9,10,11-hexahydro-7H-cyclohepta[b]pyrrolo[3,2,1-hi]indol-2-yl-3,3-dimethylbutanamide] | 150 to 350 |

Same assay, conditions: @ 3 μM; isolated rat bladder strips, 15 mM KCl added

| SMILES | % Enhancement of Contractility @ 3 μM |
| --- | --- |
| CC(C)(C)C(=O)Nc1cc2c3c(c1)c1c(n3CCC2)CCCCC1 [Example 2, N-5,6,9,10,11,12-hexahydro-4H,8H-cyclohepta[4,5]pyrrolo[3,2,1-ij]quinolin-2-yl-2,2-dimethylpropanamide] | 20-100% |
| O=C(Nc1cc2c3c(c1)c1c(n3CCC2)CCCCC1)c1cccs1 [Example 5, N-5,6,9,10,11,12-hexahydro-4H,8H-cyclohepta[4,5]pyrrolo[3,2,1-ij]quinolin-2-ylthiophene-2-carboxamide] | 60-90% |
| O=C(Nc1cc2c3c(c1)c1c(n3CCC2)CCCCC1)C1CCCCC1 [Example 8, N-5,6,9,10,11,12-hexahydro-4H,8H-cyclohepta[4,5]pyrrolo[3,2,1-ij]quinolin-2-ylcyclohexanecarboxamide] | 150-200% |
| CC(C)(C)CC(=O)Nc1cc2c3c(c1)c1c(n3CCC2)CCCC1 [Example 16, N-5,6,8,9,10,11-hexahydro-4H-pyrido[3,2,1-jk]carbazol-2-yl-3,3-dimethylbutanamide] | 80-100% |

Same assay, conditions: @ 3 μM; isolated rat bladder strips, 15 mM KCl added; read-out: % Inhibition of Contractility @ 3 μM

| SMILES | inhibition at 3 µM [%] |
| --- | --- |
| O=C(CCc1ccccc1)Nc1cc2c3c(c1)c1c(n3CCC2)CCCCC1 [Example 4, N-5,6,9,10,11,12-hexahydro-4H,8H-cyclohepta[4,5]pyrrolo[3,2,1-ij]quinolin-2-yl-3-phenylpropanamide] | 5 to 20 |
| CC(C)(C)CC(=O)Nc1cc2c3c(c1)c1c(n3CCC2)C(=O)CCCC1 [Example 23, 3,3-dimethyl-N-(8-oxo-5,6,9,10,11,12-hexahydro-4H,8H-cyclohepta[4,5]pyrrolo[3,2,1-ij]quinolin-2-yl)butanamide] | 25 to 50 |

— US7662831B2, “Tetracyclic indoles as potassium channel modulators” (Wyeth LLC, priority 2006, dated 2010)
